According to PMC3187749, “Discovery of Diverse Small Molecule Chemotypes with Cell-Based PKD1 Inhibitory Activity” (PLoS ONE, 2011):

Legend:
[1] = molecular target: T1, PKD2 (Homo sapiens, UniProt Q9BZL6); experiment: Radiometric PKD2 in vitro kinase assay; format: biochemical; conditions: preliminary in vitro data
T1 sequence (Q9BZL6 1-878): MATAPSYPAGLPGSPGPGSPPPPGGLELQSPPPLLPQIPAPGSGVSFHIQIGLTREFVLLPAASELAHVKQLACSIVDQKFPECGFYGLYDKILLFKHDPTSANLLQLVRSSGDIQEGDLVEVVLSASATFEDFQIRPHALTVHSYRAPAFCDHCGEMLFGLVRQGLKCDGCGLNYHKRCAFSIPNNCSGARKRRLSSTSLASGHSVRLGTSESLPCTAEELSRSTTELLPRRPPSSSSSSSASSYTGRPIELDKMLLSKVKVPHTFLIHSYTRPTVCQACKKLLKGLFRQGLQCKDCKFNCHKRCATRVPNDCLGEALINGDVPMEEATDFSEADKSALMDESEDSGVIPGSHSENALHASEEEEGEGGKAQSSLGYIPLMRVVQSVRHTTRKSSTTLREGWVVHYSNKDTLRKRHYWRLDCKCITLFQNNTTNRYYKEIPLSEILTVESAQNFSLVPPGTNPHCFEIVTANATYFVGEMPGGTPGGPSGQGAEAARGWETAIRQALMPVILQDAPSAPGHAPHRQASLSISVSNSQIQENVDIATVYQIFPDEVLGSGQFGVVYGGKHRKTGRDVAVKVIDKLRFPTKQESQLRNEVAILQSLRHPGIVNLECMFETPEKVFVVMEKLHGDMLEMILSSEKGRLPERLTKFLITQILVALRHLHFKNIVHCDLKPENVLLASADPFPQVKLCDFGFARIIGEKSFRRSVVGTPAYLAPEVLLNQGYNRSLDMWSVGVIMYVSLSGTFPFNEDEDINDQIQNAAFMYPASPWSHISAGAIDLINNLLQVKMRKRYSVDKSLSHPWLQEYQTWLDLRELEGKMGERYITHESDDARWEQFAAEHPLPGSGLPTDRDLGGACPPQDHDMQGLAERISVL
Procedure: (§1) Kinase reactions were initiated with the addition of ATP (50 µM ATP, 1.0 µCi γ-^33P-ATP; Perkin Elmer, Boston, MA) and incubated for 20 min at 30°C. Twenty-five µL of the reaction was spotted onto Whatman P81 filter paper (Whatman Inc., Clifton, NJ). Filter papers were then washed three times in 0.5% phosphoric acid, air-dried, and counted using an LS6500 multi-purpose scintillation counter (Beckman Coulter, Fullerton, CA). IC50 determinations were performed using GraphPad Prism software 5.0. Radiometric PKD2 and PKD3 in vitro kinase assays were performed as previously described.

[2] = molecular target: T2, PKD3 (Homo sapiens, UniProt O94806); experiment: Radiometric PKD3 in vitro kinase assay; format: biochemical; conditions: preliminary in vitro data
T2 sequence (O94806 1-890): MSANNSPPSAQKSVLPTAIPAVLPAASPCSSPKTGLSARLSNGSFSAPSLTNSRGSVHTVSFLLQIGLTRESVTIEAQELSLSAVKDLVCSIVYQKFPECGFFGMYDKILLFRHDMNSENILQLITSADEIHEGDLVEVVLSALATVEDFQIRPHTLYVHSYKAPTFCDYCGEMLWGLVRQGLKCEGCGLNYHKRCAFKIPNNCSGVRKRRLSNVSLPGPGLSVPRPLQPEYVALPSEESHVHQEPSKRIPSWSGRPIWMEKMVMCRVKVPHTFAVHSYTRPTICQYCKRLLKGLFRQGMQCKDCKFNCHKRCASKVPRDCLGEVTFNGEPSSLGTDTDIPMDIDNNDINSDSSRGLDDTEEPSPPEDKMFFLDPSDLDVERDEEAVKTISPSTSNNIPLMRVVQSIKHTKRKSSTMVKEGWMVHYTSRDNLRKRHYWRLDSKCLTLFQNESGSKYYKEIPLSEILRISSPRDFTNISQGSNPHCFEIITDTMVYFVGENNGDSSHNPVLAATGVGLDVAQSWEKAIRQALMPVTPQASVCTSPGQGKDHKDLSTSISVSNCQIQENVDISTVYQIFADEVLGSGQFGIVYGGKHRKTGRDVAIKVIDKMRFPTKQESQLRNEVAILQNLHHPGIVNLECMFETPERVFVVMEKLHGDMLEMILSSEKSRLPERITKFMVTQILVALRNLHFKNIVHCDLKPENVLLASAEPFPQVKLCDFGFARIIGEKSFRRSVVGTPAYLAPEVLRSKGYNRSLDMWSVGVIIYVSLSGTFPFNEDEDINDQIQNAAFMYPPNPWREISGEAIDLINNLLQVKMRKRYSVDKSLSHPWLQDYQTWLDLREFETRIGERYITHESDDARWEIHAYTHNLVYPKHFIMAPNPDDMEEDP
Procedure: as §1

With `O=C(Nc1ccc(CN2CCOCC2)cc1)c1ccc(-c2cccc(Cl)c2)o1` [CID 2011756, 5-(3-chlorophenyl)-N-[4-(morpholin-4-ylmethyl)phenyl]furan-2-carboxamide] the IC50 [1] was 600 ± 100 nM and the IC50 [2] was 700 ± 200 nM.
